From patent US20230201217A1 (priority 2019, published 2023) come the findings set out here.

Series [1] in a line: Phase 1 first-in-human study, pharmacokinetics in plasma. The conditions noted are these: for Cmax: Average; for percentage of the total drug related material: 4 mg twice at 0 and +10 hours.
Procedure: Fourteen normal, healthy volunteers were enrolled in the study. Seven volunteers were treated in the first cohort (3 placebo, 4 received a single dose of 20 mg of 18-MC) and seven in the second cohort (2 placebo, 5 received 8 mg as 4 mg doses of 18-MC administered at 0 and plus 10 hours). For Cohort A, volunteers were monitored in a hospital unit for 2 days (36 hours) days, and were followed up for safety at Days 3, 7 and 30. For Cohort B, volunteers were monitored in a hospital unit for 2 days (36 hours), and were followed up for safety at Days 3, 4, 7 and 30.
This study was designed as a randomized, double-blind, placebo-controlled, single-center Phase 1 first-in-human clinical trial. After screening, volunteers were admitted to the hospital for 36 hours. […] Study article was initiated on Day 1 and volunteers were discharged on Day 2. Cohort A were seen as outpatients on Days 3, 7 and 30. Cohort B were seen as outpatients on Days 3, 4, 7 and 30. 14 subjects were in the study, 5 male and 9 female.
For Cohort A, pharmacokinetic samples were obtained at baseline and at 0.5, 1.0, 2.0, 6.0, 12.0, 24, 36 hours, and 7 days post dose.
Samples underwent two analyses: A research assay (LG/MS/TOF) developed by MicroConstants, Inc., was used to collect the raw data. The first analysis was to quantitate 18-MG and the known metabolites M2, M4 and M5 (using standard curves included in the run). The second analysis compared the peak heights of 18-MG and all the metabolites that could be identified in terms of relative peak height (M1 through M10, and P1-P3).
Series [2] relates to isolated rabbit Purkinje fibers. The series can be described thus: Action potential duration in rabbit cardiac Purkinje fibers. The conditions noted are these: 50 μM, positive control.
Procedure: The in vitro effect of 18-MC on the cardiac action potential was evaluated in isolated rabbit Purkinje fibers (FIG. 13). […] Fibers with resting potentials more negative than −80 mV and normal action potential morphology (APD90≥150 ms) were used in the study. Fibers were stimulated continuously at BCL of 1 second for at least 5 minutes. At the end of this period, baseline control APD rate dependence was measured using stimulus pulse trains consisting of approximately 50 pulses at BCL of 1 and 0.5 seconds. After returning to BCL of 1 second, 18-MC (or dl-sotalol) at the lowest concentration was applied for at least 20 minutes to allow equilibration, and the stimulus trains repeated. […] The average responses from the last five recorded action potentials from each stimulus train were analyzed for each test condition.
Electrophysiological recordings were performed with four nominal concentrations of 18-MC (0.3, 1, 3, and 10 μM) added sequentially to four preparations at two stimulus intervals (basic cycle lengths of 1 s and 0.5 s). The effects of 18-MC on action potential parameters were compared to time-matched vehicle control sequences.
A further series has as its system mouse liver. The series can be described thus: In vivo comet assay. The conditions noted are these: positive control.
For series [3], the target named is T1, rat α3β4 nicotinic acetylcholine receptor (nAChR) (Rattus norvegicus, UniProt P04757+P12392).
T1 construct: expressed in transfected cells; host or cells: HEK 293 (ATCC CRL1573), transient, Lipofectamine 2000
The experiment in a line: cell-based. The conditions noted are these: for Persistent Inhibition at 1 sec: 1 second after removal of drug; for koff: HEK293.

[4] abbreviates: both, human, plasma, po, 4 mg, cohort B, 4 mg PO at 0 and +10 hours.
The mark [5] stands for this setting: both, human, plasma, po, 20 mg, cohort A, 20 mg PO single dose.
The mark [6] stands for this setting: cohort B, 4 mg PO at 0 and +10 hours.

“And” between values parts separate entries of the source, which are not always exact repeats. Equal values may be shown once. Read-outs that look alike come from different tables or passages of the source.

T1 sequence (P04757 26-499): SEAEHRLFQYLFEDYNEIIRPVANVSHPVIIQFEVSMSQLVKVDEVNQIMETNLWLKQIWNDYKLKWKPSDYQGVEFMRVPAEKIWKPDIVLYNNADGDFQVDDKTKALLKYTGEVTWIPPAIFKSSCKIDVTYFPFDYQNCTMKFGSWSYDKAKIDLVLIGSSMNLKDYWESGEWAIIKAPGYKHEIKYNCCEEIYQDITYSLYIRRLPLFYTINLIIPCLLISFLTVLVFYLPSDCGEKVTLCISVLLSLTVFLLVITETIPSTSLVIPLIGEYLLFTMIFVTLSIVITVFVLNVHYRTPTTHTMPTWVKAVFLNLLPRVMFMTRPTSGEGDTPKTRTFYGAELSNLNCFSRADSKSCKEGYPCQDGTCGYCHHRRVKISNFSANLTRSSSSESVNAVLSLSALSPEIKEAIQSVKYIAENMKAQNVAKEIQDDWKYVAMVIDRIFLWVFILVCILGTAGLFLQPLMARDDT
T1 sequence (P12392 21-495): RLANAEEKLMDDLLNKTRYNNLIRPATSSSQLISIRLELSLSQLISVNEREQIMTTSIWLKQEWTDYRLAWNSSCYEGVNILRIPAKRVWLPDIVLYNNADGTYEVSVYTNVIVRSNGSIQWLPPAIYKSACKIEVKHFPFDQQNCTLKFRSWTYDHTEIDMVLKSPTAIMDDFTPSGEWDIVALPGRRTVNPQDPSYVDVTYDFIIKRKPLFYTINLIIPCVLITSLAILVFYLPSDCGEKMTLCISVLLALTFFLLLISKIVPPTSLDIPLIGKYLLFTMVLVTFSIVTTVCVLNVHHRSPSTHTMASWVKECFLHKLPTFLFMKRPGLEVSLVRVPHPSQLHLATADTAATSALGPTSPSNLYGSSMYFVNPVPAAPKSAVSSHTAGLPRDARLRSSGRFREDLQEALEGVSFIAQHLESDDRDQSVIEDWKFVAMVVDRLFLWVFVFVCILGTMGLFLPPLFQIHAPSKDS
Procedure for mouse liver: The comet assay (alkaline single cell gel electrophoresis) is a microgel electrophoretic technique that detects DNA damage in individual cells. DNA damage can be expressed as DNA single strand breaks, double strand breaks, and strand breaks induced by alkali labile sites. […] For this study, the liver was selected as the tissue for evaluation, since this tissue is expected to contain high concentrations of parent drug and metabolites following oral administration.
Male mice were administered oral doses of 0 (vehicle=5% dextrose), 50, 90 and 120 mg/kg/day by gavage according to the table below. Animals in groups 1-4 were dosed on three consecutive days and euthanized 3 to 4 hours after the last dose by CO2 inhalation. A separate group of animals were dosed with methyl methanesulfonate (MMS) which served as a positive control. Immediately following euthanasia, the liver was removed and collected from each animal.
In this study, comet tail migration, % tail DNA (also known as % tail intensity) and tail moment were determined for each animal/treatment group and served as parameters of DNA damage.

As for `COC(=O)C12CC3CC(CCO)C1N(C=Cc1c2[nH]c2ccccc12)C3` (stereo not drawn) [M2, methyl7-(2-hydroxyethyl)-7,8,9,10-tetrahydro-5H-6,9-methanopyrido[1′,2′:1,2]azepino[4,5-b]indole-6(6aH)-carboxylate], in series [1] (both, human, plasma, po, 4 mg), the AUC is 391 ng·h/mL, the AUC(0-inf) turned out to be 420 ng·h/mL, the Tmax was 11.8 h and the half-life is 44.1 h. For the same compound, in series [1] (setting [4]), the Cmax was found to be 11 ng/mL. For the same compound, in series [1] (both, human, plasma, po, 20 mg), the AUC is 563 ng·h/mL, the AUC(0-inf) came out at 678 ng·h/mL, the Tmax turned out to be 1.4 h and the half-life was 14.4 h. Besides, in series [1] (setting [5]), the highest level (Cmax) was 41 ng/mL. Further, in series [1] (cohort A, 20 mg PO single dose), the “AUCall, Max” value worked out at 684 ng·h/mL; the “AUCall, Min” value turned out to be 504 ng·h/mL; the “Cmax, Max” value came to 62 ng/mL; the “Cmax, Min” value was found to be 27 ng/mL. In series [1] (cohort A, 20 mg PO single dose), the “Half-Life, Max” value amounted to 19.0 h; the “Half-Life, Min” value amounted to 11.1 h; the “Tmax, Max” value turned out to be 2.0 h; the “Tmax, Min” value came out at 0.5 h. Moreover, in series [1] (setting [6]), the “AUCall, Max” value was 500 ng·h/mL; the “AUCall, Min” value is 287 ng·h/mL; the “Cmax, Max” value is recorded as 12 ng/mL; the “Cmax, Min” value was 8 ng/mL. In series [1] (setting [6]), the “Half-Life, Max” value came out at 97.8 h; the “Half-Life, Min” value worked out at 18.7 h; the “Tmax, Max” value was 12 h; the “Tmax, Min” value worked out at 11 h.
Turning to `CC(C)NCC(O)c1ccc(NS(C)(=O)=O)cc1` (racemic) [dl-Sotalol, reference compound], in series [2], the APD60 prolongation was around 40% and the APD90 prolongation is recorded as around 40%.
As to `COS(C)(=O)=O` [MMS, methyl methanesulfonate, reference compound], in the series on mouse liver, the comet parameters result is recorded as “produced the expected increases”.
With `COC(=O)C12CC3CC(CCO[C@@H]4O[C@H](C(=O)O)[C@@H](O)[C@H](O)[C@H]4O)C1N(C=Cc1c2[nH]c2ccccc12)C3` (stereo partly drawn) [P10, (2S,3S,4S,5R,6R)-3,4,5-trihydroxy-6-(2-(6-(methoxycarbonyl)-6,6a,7,8,9,10-hexahydro-5H-6,9-methanopyrido[1′,2′:1,2]azepino[4,5-b]indol-7-yl)ethoxy)tetrahydro-2H-pyran-2-carboxylic acid], the “percentage of the total drug related material” value (“percentage” for short) in series [1] is listed as “greater than 10%”. Besides, the Tmax in series [1] (both, human, plasma, oral, 4 mg) lay in the range of 6 to 10 h.
Regarding `COCCC1CC2CN3C=Cc4c([nH]c5ccc(O)cc45)C(C(=O)OC)(C2)C13` (stereo not drawn) [M8, methyl 2-hydroxy-7-(2-methoxyethyl)-7,8,9,10-tetrahydro-5H-6,9-methanopyrido[1′,2′:1,2]azepino[4,5-b]indole-6(6aH)-carboxylate], the “percentage” value in series [1] is “less than 10%”.
On to `COC(=O)C12CC3CC(CC(=O)O)C1N(CCc1c2[nH]c2ccccc12)C3` (stereo not drawn) [M5, 2-(6-(methoxycarbonyl)-6,6a,7,8,9,10,12,13-octahydro-5H-6,9-methanopyrido[1′,2′:1,2]azepino[4,5-b]indol-7-yl)acetic acid], for which, in series [3], the IC50 is 57 µM, the Ipeak was 70 ± 4% of ACh, the Iss was 62 ± 4% of peak and the “Max Inhibition 20-30 μM” value was found to be 36 ± 5 %. Also, in series [3], the “fold less potent than the parent 18-MC HCl” value was around 76 fold; the kon is 2.2 and 2.2 ± 0.4 s−1; the τdecay was found to be 554 ± 32 ms; the “Persistent Inhibition at 1 sec” value turned out to be 2±2%. This compound also yielded a koff in series [3] of 6.2 s⁻¹. Further, in series [1] (both, human, plasma, po, 4 mg), the AUC worked out at 163 ng·h/mL, the AUC(0-inf) was 185 ng·h/mL, the Tmax amounted to 2.9 h and the half-life is 46.8 h. In series [1] (setting [4]), this compound came in with a Cmax of 6 ng/mL. Further, in series [1] (both, human, plasma, po, 20 mg), the AUC was determined as 210 ng·h/mL, the AUC(0-inf) is 395 ng·h/mL, the Tmax was 0.8 h and the half-life is 29.6 h. Besides, in series [1] (setting [5]), the peak level (Cmax) was 25 ng/mL. Moreover, the time to peak (Tmax) entry in series [1] (cohort A or B, generally) is given as “½”. Besides, in series [1] (cohort A, 20 mg PO single dose), the “AUCall, Max” value was determined as 359 ng·h/mL; the “AUCall, Min” value was 105 ng·h/mL; the “Cmax, Max” value is given as 38 ng/mL; the “Cmax, Min” value came out at 12 ng/mL. Further, in series [1] (cohort A, 20 mg PO single dose), the “Half-Life, Max” value is 43.4 h; the “Half-Life, Min” value stood at 16.2 h; the “Tmax, Max” value is 1.0 h; the “Tmax, Min” value turned out to be 0.5 h. In series [1] (setting [6]), the “AUCall, Max” value was 208 ng·h/mL; the “AUCall, Min” value was 104 ng·h/mL; the “Cmax, Max” value was determined as 9 ng/mL; the “Cmax, Min” value is on record as 3 ng/mL. Moreover, in series [1] (setting [6]), the “Half-Life, Max” value came out at 74.7 h; the “Half-Life, Min” value amounted to 19.8 h; the “Tmax, Max” value was 11 h; the “Tmax, Min” value is 0.5 h.
Regarding `COCCC1CC2CN3C=Cc4c([nH]c5ccccc45)C(C(=O)OC)(C2)C13` (stereo not drawn) [M4, methyl7-(2-methoxyethyl)-7,8,9,10-tetrahydro-5H-6,9-methanopyrido[1′,2′:1,2]azepino[4,5-b]indole-6(6aH)-carboxylate], in series [3], the IC50 was 2.6 µM; the Ipeak is 23 ± 2% of ACh and 42 ± 3% of ACh; the “Max Inhibition 20-30 μM” value amounted to 88 ± 3%; the “fold less potent than the parent 18-MC HCl” value is on record as “approximately 3.5 fold”. Moreover, in series [3], the kon was 4.5 and 4.5 ± 0.4 s−1; the “reduction of peak ACh-evoked currents” value is 68±2% and 86±2%; the “Persistent Inhibition at 1 sec” value amounted to 21±3%; the koff is 2.5 s⁻¹. For the same compound, in series [3] (30 μM), the Ipeak was 14 ± 2% of ACh, the Iss is given as 40 ± 6% of peak and the τdecay was determined as 205 ± 40 ms. Further, the “percentage” value in series [1] is on record as “about 40%”. Moreover, in series [1] (both, human, plasma, po, 4 mg), the AUC stood at 1650 ng·h/mL, the AUC(0-inf) amounted to 1650 ng·h/mL, the Tmax came to 7.3 h and the half-life is 22.1 h. For the same compound, in series [1] (setting [4]), the concentration peaked (Cmax) at 72 ng/mL. Moreover, in series [1] (both, human, plasma, po, 20 mg), the AUC came out at 2690 ng·h/mL, the AUC(0-inf) worked out at 2800 ng·h/mL, the Tmax was 1.4 h and the half-life is 7.9 h. In series [1] (setting [5]), this compound gave a Cmax of 347 ng/mL. Moreover, the Tmax entry in series [1] (cohort A or B, generally) is reported as “½”. Besides, in series [1] (cohort A, 20 mg PO single dose), the “AUCall, Max” value turned out to be 3925 ng·h/mL; the “AUCall, Min” value was found to be 1897 ng·h/mL; the “Cmax, Max” value is 528 ng/mL; the “Cmax, Min” value stood at 242 ng/mL. Also, in series [1] (cohort A, 20 mg PO single dose), the “Half-Life, Max” value came to 9.3 h; the “Half-Life, Min” value turned out to be 6.3 h; the “Tmax, Max” value was 2.0 h; the “Tmax, Min” value came to 0.5 h. Further, in series [1] (setting [6]), the “AUCall, Max” value was found to be 1941 ng·h/mL; the “AUCall, Min” value was determined as 1304 ng·h/mL; the “Cmax, Average” value is on record as 72.3 ng/mL; the “Cmax, Max” value was found to be 82 ng/mL. In series [1] (setting [6]), the “Cmax, Min” value worked out at 65 ng/mL; the “Half-Life, Max” value was determined as 34.3 h; the “Half-Life, Min” value came out at 13.2 h; the “Tmax, Max” value is 12 h. Moreover, the “Tmax, Min” value in series [1] (setting [6]) is 0.5 h.
